Test results as given in patent publication US20050106558A1, “Library of modified structural genes or capsid modified particles useful for the identification of viral clones with desired cell tropism” (priority 2001, published 2005).

Legend:
M-07e cells = experiment: Transduction efficiency of rAAV-GFP clones on M-07e cells (FACS), with or without competitors; format: cell-based, human
Description: Cells were seeded in 96 or 24 well plates (Nunc, Wiesbaden, Germany) and infected with rAAV-GFP clones, harvested 48 hrs p.i., washed and resuspended in 1 ml PBS. The percentage of GFP expressing cells was determined by flow cytometry with a Coulter Epics XL-MCL (Beckman Coulter, Krefeld, Germany). A minimum of 5000 cells were analyzed for each sample. Infectivity of the retargeted mutants was determined in the presence or absence of various concentrations of GRGDTP or GRGES peptides (Bachem, Bubendorf, Swiss) or 5 I.U./[II soluble heparin (Braun, Melsungen, Germany).
The selected capsid mutants were tested for their ability to transduce M-07e cells (FIG. 5a). At a genomic particle/cell ratio of 2×10^4, the mutants rAAV-M07A and rAAV-M07T transduced 50±2.5% and 47±2.7% of M-07e cells, respectively, representing a 100 and 94 fold increase in comparison to rAAV-wt transduction efficiency (0.5±0.01%). In contrast, rAAV-MecA and rAAV-MecB transduced M-07e cells with an efficiency of only 8.1±1.5% and 16±2%. The vector rAAV-L14, carrying an RGD motif inserted at position 587 (Girod A et al (1999) supra), was also compared. […] This highlighted the advantage of the combinatorial approach when compared with the simple insertion of an exogenous sequence.
We then examined whether the transduction of M-07e cells by rAAV-M07A and rAAV-M07T vectors was specifically mediated by the amino acids inserted at position 587. In the capsid of wt AAV, the region around position 587 is involved in the binding to heparan sulfate proteoglycan (HSPG) (Nicklin S A et al. (2001) Mol. Ther. 4, 174-81; Wu P. et al. (2000) J. Virol. 74, 8635-47), the primary receptor of AAV-2 (Summerford C and Samulski J (1998) J. Virol. 72, 1438-45). Pre-incubation with soluble heparin, an HSPG analogue and competitor, inhibited transduction of M-07e cells by rAAV-MecB but not by rAAV-M07A, rAAV-M07T and rAAV-MecA (FIG. 5a). […] This effect was concentration-dependent (FIG. 5b). […]

[1] = target: integrin receptor expressed on the surface of the target cells; experiment: cell-based or functional assay

GRGES was tested, and the “effect of inactive GRGES peptide on transduction” value (M-07e cells; M-07e cells, 450 μM) was “no effect”.
For RGDS, the “reduction of transduction efficiencies by competing RGDS peptide” value (M-07e cells; M07e cells incubated with 100 uM peptide prior to infection) was “more than 50%”.
For RGES, the “effect of RGES peptide pre-incubation on infection” value (M-07e cells; M07e cells) was “failed to inhibit”.
“rAAV-M07A (RGDAVGV insertion) (from UniProt P03135 1-587; P03135 588-735)” was tested, and the reduction of M07e cell transduction after incubation of the cells with 100 uM RGDS peptide [1] was > 50%.
“rAAV-M07T (RGDTPTS insertion) (from UniProt P03135 1-587; P03135 588-735)” was tested, and the reduction of M07e cell transduction after incubation of the cells with 100 uM RGDS peptide [1] was > 50%.
